Test results taken from patent publication US4301177A, “(3-Methyl-2-butenyl)propanedioic acid mono (1,2-diphenylhydrazide) and salts thereof” (Istituto de Angeli S.p.A., priority 1979, dated 1981).
Where a name gives a salt, the structure may show the parent alone.

Columns and labels:
rats [1] = experiment: Analgesic-anti-inflammatory activity, Randall and Selitto, brewer's yeast inflamed paw in rats (Table IV); format: in vivo, male Sprague-Dawley rats; details: for Analgesic Index: ratio to controls (1.0)
Protocol: (§1) In the present study the test compounds were administered perorally by means of a stomach tube as an aqueous suspension in 5% acacia gum at a constant volume of 10 ml/kg to male Swiss mice and male Sprague-Dawley rats. Control rats and mice were given a corresponding volume of the aqueous suspension medium. The results were statistically evaluated by Dunnett's test (C. V. Dunnett.: J.A. Stat. Ass., 40, 1096, 1955).
4. Analgesic-anti-inflammatory activity
The analgesic-anti-inflammatory activity was evaluated in rats by the method of Randall and Selitto (Arch. Int. Pharmacodyn., 111, 409, 1957), using an analgesimeter to measure the minimum load that must be applied to a rat's hind paw to elicit a painful stimulus.
Both the controls and the experimental rats were injected into the right hind paw with 0.1 ml of 20% brewer's yeast in sterile saline immediately before the administration of the test compound.
The volume of the inflamed right hind paw was measured 1, 2 and 4 hours after the administration of the test compound.
The analgesic-anti-inflammatory activity was evaluated using an "analgesic index" expressed as a ratio between the sum of the average weights (grams) necessary to provoke a painful stimulus at different times in treated and control animals.

rats [2] = experiment: Effect on normal temperature of rats (Table VI); format: in vivo, male Sprague-Dawley rats
Protocol: as §1
6. Effect on normal temperature of rats
The rectal temperature was measured at 30-minute intervals before and after administration of the test compound, that is, at -1.5, -1, -0.5, 0.5, 1, 1.5 and 2 hours, using groups of 10 rats each for each dosage level.
(§2) Average values of the temperatures obtained in the treated rats were compared with those of control rats.

rats [3] = experiment: Antipyretic activity, fever induced by brewer's yeast in rats (Table V); format: in vivo, male Sprague-Dawley rats
Protocol: as §1
The antipyretic activity was investigated in rats by the method of Niemegeers et al. (see Arzneim.Forsch. 25, 1519, 1975). The rectal temperature was measured immediately before and 4 hours after the subcutaneous injection of 1 ml/100 g body weight of a 15% brewer's yeast suspension in 1% acacia gum.
The test compound was administered orally to groups of 5 different rats per dose 4 hours after the yeast injection. The rectal temperature was measured 0.5, 1, 1.5, 2, 2.5, 3 and 19 hours after treatment.
as §2

rats [4] = experiment: Ulcerogenic effect, gastric lesions in rats (Table VIII); format: in vivo, male Sprague-Dawley rats; details: for Body weight, mean ± standard deviation / % animals with gastric lesions / Ulcerogenic Index: single dose; for % animals with gastric lesions / Ulcerogenic Index: 16 h
Protocol: as §1
The ulcerogenic effect was determined in rats by the method of Niemegeers et al. (Arzneimittel-Forschung 25, 1537, 1975). A single oral dose was administered to groups of 15 rats fasted for 9 hours before treatment and kept fasting throughout the whole experimental period. The animals were sacrificed 16 hours after treatment; the severity of lesions was scored according to an arbitrary scale ranging from + to ++++. For each group of rats, an ulcerogenic index was calculated according to Pauls et al., (Gastroenterology 8, 774, 1947).

rats [5] = experiment: Effect on arthritis induced in rats by Freund's adjuvant (Table II); format: in vivo, male Sprague-Dawley rats; details: day 20
mice = experiment: Analgesic activity, hot plate test in mice (Table III); format: in vivo, male Swiss mice
Protocol: as §1
The analgesic activity was evaluated in mice by the hot plate test according to Janssen and Jageneau (J.Pharm.Pharmac., 9, 381, 1957).
The plate temperature was kept constant at 55° C.; the reaction time was determined before and 30, 60, 90 and 120 minutes after oral administration of the test compound. Average values after administration of the test compound were compared to those obtained before treatment.

## CC(C)=CCC(C(=O)O)C(=O)N(Nc1ccccc1)c1ccccc1 (stereo not drawn) [A, Calcium salt of (3-methyl-2-butenyl)propanedioic acid mono(1,2-diphenylhydrazide)]
Rats [1]; 40 mg/kg oral, 1 h
  Mean of the weights eliciting painful stimulus: 196.2 grams
Rats [1]; 40 mg/kg oral, 2 h
  Mean of the weights eliciting painful stimulus: 128.8 grams
Rats [1]; 40 mg/kg oral, 4 h
  Mean of the weights eliciting painful stimulus: 95.0 grams
Rats [1]; 40 mg/kg oral
  Analgesic Index: 1.49
Rats [1]; 80 mg/kg oral, 1 h
  Mean of the weights eliciting painful stimulus: 192.6 grams
Rats [1]; 80 mg/kg oral, 2 h
  Mean of the weights eliciting painful stimulus: 147.6 grams
Rats [1]; 80 mg/kg oral, 4 h
  Mean of the weights eliciting painful stimulus: 146.2 grams
Rats [1]; 80 mg/kg oral
  Analgesic Index: 1.72
Rats [1]; 160 mg/kg oral, 1 h
  Mean of the weights eliciting painful stimulus: 245.0 grams
Rats [1]; 160 mg/kg oral, 2 h
  Mean of the weights eliciting painful stimulus: 171.2 grams
Rats [1]; 160 mg/kg oral, 4 h
  Mean of the weights eliciting painful stimulus: 143.8 grams
Rats [1]; 160 mg/kg oral
  Analgesic Index: 1.98
Rats [2]; 40 mg/kg oral, 0.5 h
  Rectal temperature (normal rats): 35.96 °C
Rats [2]; 40 mg/kg oral, 1 h
  Rectal temperature (normal rats): 36.28 °C
Rats [2]; 40 mg/kg oral, 1.5 h
  Rectal temperature (normal rats): 36.34 °C
Rats [2]; 40 mg/kg oral, 2 h
  Rectal temperature (normal rats): 36.54 °C
Rats [2]; 40 mg/kg oral, -0.5 h (before administration)
  Rectal temperature (normal rats): 36.20 °C
Rats [2]; 40 mg/kg oral, -1 h (before administration)
  Rectal temperature (normal rats): 36.62 °C
Rats [2]; 40 mg/kg oral, -1.5 h (before administration)
  Rectal temperature (normal rats): 36.81 °C
Rats [2]; 80 mg/kg oral, 0.5 h
  Rectal temperature (normal rats): 36.25 °C
Rats [2]; 80 mg/kg oral, 1 h
  Rectal temperature (normal rats): 36.12 °C
Rats [2]; 80 mg/kg oral, 1.5 h
  Rectal temperature (normal rats): 36.14 °C
Rats [2]; 80 mg/kg oral, 2 h
  Rectal temperature (normal rats): 36.15 °C
Rats [2]; 80 mg/kg oral, -0.5 h (before administration)
  Rectal temperature (normal rats): 36.33 °C
Rats [2]; 80 mg/kg oral, -1 h (before administration)
  Rectal temperature (normal rats): 36.42 °C
Rats [2]; 80 mg/kg oral, -1.5 h (before administration)
  Rectal temperature (normal rats): 36.75 °C
Rats [2]; 160 mg/kg oral, 0.5 h
  Rectal temperature (normal rats): 35.71 °C
Rats [2]; 160 mg/kg oral, 1 h
  Rectal temperature (normal rats): 35.85 °C
Rats [2]; 160 mg/kg oral, 1.5 h
  Rectal temperature (normal rats): 35.91 °C
Rats [2]; 160 mg/kg oral, 2 h
  Rectal temperature (normal rats): 35.86 °C
Rats [2]; 160 mg/kg oral, -0.5 h (before administration)
  Rectal temperature (normal rats): 36.22 °C
Rats [2]; 160 mg/kg oral, -1 h (before administration)
  Rectal temperature (normal rats): 36.32 °C
Rats [2]; 160 mg/kg oral, -1.5 h (before administration)
  Rectal temperature (normal rats): 37.01 °C
Rats [3]; 40 mg/kg oral, 0 h (4 h after yeast, before treatment)
  Rectal temperature: 38.00 °C
Rats [3]; 40 mg/kg oral, 0.5 h
  Rectal temperature: 37.51 °C
Rats [3]; 40 mg/kg oral, 1 h
  Rectal temperature: 38.41 °C
Rats [3]; 40 mg/kg oral, 1.5 h
  Rectal temperature: 38.24 °C
Rats [3]; 40 mg/kg oral, 2 h
  Rectal temperature: 38.23 °C
Rats [3]; 40 mg/kg oral, 2.5 h
  Rectal temperature: 38.28 °C
Rats [3]; 40 mg/kg oral, 3 h
  Rectal temperature: 38.10 °C
Rats [3]; 40 mg/kg oral, 19 h
  Rectal temperature: 37.51 °C
Rats [3]; 40 mg/kg oral, -4 h (before yeast)
  Rectal temperature: 37.00 °C
Rats [3]; 80 mg/kg oral, 0 h (4 h after yeast, before treatment)
  Rectal temperature: 38.14 °C
Rats [3]; 80 mg/kg oral, 0.5 h
  Rectal temperature: 37.16 °C
Rats [3]; 80 mg/kg oral, 1 h
  Rectal temperature: 37.47 °C
Rats [3]; 80 mg/kg oral, 1.5 h
  Rectal temperature: 37.54 °C
Rats [3]; 80 mg/kg oral, 2 h
  Rectal temperature: 37.57 °C
Rats [3]; 80 mg/kg oral, 2.5 h
  Rectal temperature: 37.47 °C
Rats [3]; 80 mg/kg oral, 3 h
  Rectal temperature: 37.47 °C
Rats [3]; 80 mg/kg oral, 19 h
  Rectal temperature: 36.75 °C
Rats [3]; 80 mg/kg oral, -4 h (before yeast)
  Rectal temperature: 37.06 °C
Rats [3]; 160 mg/kg oral, 0 h (4 h after yeast, before treatment)
  Rectal temperature: 38.06 °C
Rats [3]; 160 mg/kg oral, 0.5 h
  Rectal temperature: 37.14 °C
Rats [3]; 160 mg/kg oral, 1 h
  Rectal temperature: 37.20 °C
Rats [3]; 160 mg/kg oral, 1.5 h
  Rectal temperature: 37.62 °C
Rats [3]; 160 mg/kg oral, 2 h
  Rectal temperature: 37.67 °C
Rats [3]; 160 mg/kg oral, 2.5 h
  Rectal temperature: 37.58 °C
Rats [3]; 160 mg/kg oral, 3 h
  Rectal temperature: 37.76 °C
Rats [3]; 160 mg/kg oral, 19 h
  Rectal temperature: 37.86 °C
Rats [3]; 160 mg/kg oral, -4 h (before yeast)
  Rectal temperature: 36.46 °C
Rats [4]; 40 mg/kg oral
  Body weight, mean ± standard deviation: 206.67 ± 9.00 grams
  % animals with gastric lesions: 0%
  Ulcerogenic Index: 0
Rats [4]; 80 mg/kg oral
  Body weight, mean ± standard deviation: 205.33 ± 6.40 grams
  % animals with gastric lesions: 0%
  Ulcerogenic Index: 0
Rats [4]; 160 mg/kg oral
  Body weight, mean ± standard deviation: 212.67 ± 12.23 grams
  % animals with gastric lesions: 0%
  Ulcerogenic Index: 0
Rats [4]; 320 mg/kg oral
  Body weight, mean ± standard deviation: 218.67 ± 6.40 grams
  % animals with gastric lesions: 46.66%
  Ulcerogenic Index: 71.38
Rats [4]; summary, Table VIII
  ulcerogenic effect compared with prior art compound: less ulcerogenic
Rats [5]; 40 mg/kg oral
  % Inhibition: 34%
Rats [5]; 80 mg/kg oral
  % Inhibition: 35%
Rats [5]; 160 mg/kg oral
  % Inhibition: 45%
mice; 50 mg/kg oral, 0 (before administration)
  Reaction time: 15.40 ± 2.76 s
mice; 50 mg/kg oral, 30 min
  Reaction time: 16.70 ± 3.86 s
mice; 100 mg/kg oral, 0 (before administration)
  Reaction time: 12.90 ± 3.21 s
mice; 200 mg/kg oral, 0 (before administration)
  Reaction time: 14.40 ± 2.95 s
mice; summary, Table III
  analgesic activity in the hot plate test compared with bumadizon calcium: higher, begins earlier and lasts longer than that of bumadizon calcium
